Four substances from US20030203414A1, “COMPOUNDS THAT INHIBIT THE INTERACTION BETWEEN SIGNAL-TRANSDUCING PROTEINS AND THE GLGF (PDZ/DHR) DOMAIN AND USES THEREOF” (priority 1999, published 2003) can be followed below.

The subject of assay [1] is Fas/FAP-1 binding. In words: In vitro inhibition assay of Fas/FAP-1 binding (GST-Fas fusion protein and in vitro-translated 35S-labeled FAP-1). The settings on record: for binding of in vitro-translated FAP-1 to GST-Fas: FIG. 3A, GST-Fas (191-355), C-terminal 15 amino acids at 1-1000 μM, human PAMP at 1 mM as negative control. How it is done:
HFAP-10 cDNA (Sato, et al. 1995) subcloned into the Bluescript vector pSK-II (Stratagene) was in vitro-translated from an internal methionine codon in the presence of ^35S-L-methionine using a coupled in vitro transcription/translation system (Promega, TNT lysate) and T7 RNA polymerase. The resulting ^35S-labeled protein was incubated with GST-Fas fusion proteins that had been immobilized on […] affinity beads (Pharmacia) in a buffer containing 150 mM NaCl, 50 mM Tris [pH 8.0], 5 mM DTT, 2 mM EDTA, 0.1% NP-40, 1 mM PMSF, 50 μg/ml leupeptin, 1 mM Benzamidine, and 7 μg/ml pepstatin for 16 hours at 4° C. After washing vigorously 4 times in the same buffer, associated proteins were recovered with the glutathione-Sepharose beads by centrifugation, eluted into boiling Laemmli buffer, and analyzed by SDS-PAGE and fluorography.
In vitro-translated [^35]HFAP-1 was purified with a NAP-5 column (Pharmacia) and incubated with 3 μM of GST-fusion proteins for 16 hours at 4° C. After washing 4 times in the binding buffer, radioactivity incorporation was determined in a b counter. The percentage of binding inhibition was calculated as follows: percent inhibition=[radioactivity incorporation using GST-Fas (191-335) with peptides−radioactivity incorporation using GST-Fas (191-320) with peptides]/[radioactivity incorporation using GST-Fas (191-335) without peptides−radioactivity incorporation using GST-Fas (191-320) without peptides]. n=3.

Assay [2] deals with T1, binding of FAP-1 to Fas proteins extracted from Jurkat T-cells (Homo sapiens, UniProt Q12923).
T1 construct: made in house; Fas is endogenous in Jurkat T-cell extract
Put plainly: Immuno-precipitation of native Fas from Jurkat T-cell extracts with GST-FAP-1, inhibition with tripeptides. To be noted: FIGS. 4C and 4D, Western analysis with anti-Fas monoclonal antibody. How it is done:
GST-fusion proteins with or without FAP-1 were incubated with cell extracts from Jurkat T-cells expressing Fas. The bound Fas was detected by Western analysis using anti-Fas monoclonal antibody (F22120, Transduction Laboratories). The tripeptides, Ac-SLV and Ac-SLY were used for the inhibition assay of Fas/FAP-1 binding.

Assay [3] deals with DLD-1 human colon cancer cells. Put plainly: Microinjection of synthetic tripeptides into DLD-1 cells, Fas-induced apoptosis. Type of assay: cell-based. To be noted: tripeptide 100 mM microinjected into the cytoplasm; CH11 500 ng/ml; 16 to 20 hours postinjection; condensed chromatin, Hoechst 33342. How it is done:
DLD-1 human colon cancer cells were cultured in RPMI 1640 medium containing 10% FCS. For microinjection, cells were plated on CELLocate (Eppendorf) at 1×10^5 cells/2 ml in a 35 mm plastic culture dish and grown for 1 day. Just before microinjection, Fas monoclonal antibodies CH11 (MBL International) was added at the concentration of 500 ng/ml. All microinjection experiments were performed using an automatic microinjection system (Eppendorf transjector 5246, micro-manipulator 5171 and Femtotips) (Pantel, et al. 1995). Synthetic tripeptides were suspended in 0.1% (w/v) FITC-Dextran (Sigma)/K-PBS at the concentration of 100 mM. The samples were microinjected into the cytoplasmic region of DLD-1 cells. Sixteen to 20 hours postinjection, the cells were washed with PBS and stained with 10 μg/ml Hoechst 33342 in PBS. After incubation at 37° C. for 30 minutes, the cells were photographed and the cells showing condensed chromatin were counted as apoptotic.
For each experiment, 25-100 cells were microinjected. Apoptosis of microinjected cells was determined by assessing morphological changes of chromatin using phase contrast and fluorescence microscopy (Wang, et al., 1995; McGahon, et al., 1995). The data are means +/−S.D. for two or three independent determinations.

“Also recorded” adds a separate entry of the source. No end group written: not given here.

Chain of Fas/FAP-1 binding (Q12923 1361-1456 limits assumed): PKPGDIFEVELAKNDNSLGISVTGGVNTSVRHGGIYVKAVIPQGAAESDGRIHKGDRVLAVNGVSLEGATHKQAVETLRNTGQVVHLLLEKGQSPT
T1 sequence (Q12923 whole entry): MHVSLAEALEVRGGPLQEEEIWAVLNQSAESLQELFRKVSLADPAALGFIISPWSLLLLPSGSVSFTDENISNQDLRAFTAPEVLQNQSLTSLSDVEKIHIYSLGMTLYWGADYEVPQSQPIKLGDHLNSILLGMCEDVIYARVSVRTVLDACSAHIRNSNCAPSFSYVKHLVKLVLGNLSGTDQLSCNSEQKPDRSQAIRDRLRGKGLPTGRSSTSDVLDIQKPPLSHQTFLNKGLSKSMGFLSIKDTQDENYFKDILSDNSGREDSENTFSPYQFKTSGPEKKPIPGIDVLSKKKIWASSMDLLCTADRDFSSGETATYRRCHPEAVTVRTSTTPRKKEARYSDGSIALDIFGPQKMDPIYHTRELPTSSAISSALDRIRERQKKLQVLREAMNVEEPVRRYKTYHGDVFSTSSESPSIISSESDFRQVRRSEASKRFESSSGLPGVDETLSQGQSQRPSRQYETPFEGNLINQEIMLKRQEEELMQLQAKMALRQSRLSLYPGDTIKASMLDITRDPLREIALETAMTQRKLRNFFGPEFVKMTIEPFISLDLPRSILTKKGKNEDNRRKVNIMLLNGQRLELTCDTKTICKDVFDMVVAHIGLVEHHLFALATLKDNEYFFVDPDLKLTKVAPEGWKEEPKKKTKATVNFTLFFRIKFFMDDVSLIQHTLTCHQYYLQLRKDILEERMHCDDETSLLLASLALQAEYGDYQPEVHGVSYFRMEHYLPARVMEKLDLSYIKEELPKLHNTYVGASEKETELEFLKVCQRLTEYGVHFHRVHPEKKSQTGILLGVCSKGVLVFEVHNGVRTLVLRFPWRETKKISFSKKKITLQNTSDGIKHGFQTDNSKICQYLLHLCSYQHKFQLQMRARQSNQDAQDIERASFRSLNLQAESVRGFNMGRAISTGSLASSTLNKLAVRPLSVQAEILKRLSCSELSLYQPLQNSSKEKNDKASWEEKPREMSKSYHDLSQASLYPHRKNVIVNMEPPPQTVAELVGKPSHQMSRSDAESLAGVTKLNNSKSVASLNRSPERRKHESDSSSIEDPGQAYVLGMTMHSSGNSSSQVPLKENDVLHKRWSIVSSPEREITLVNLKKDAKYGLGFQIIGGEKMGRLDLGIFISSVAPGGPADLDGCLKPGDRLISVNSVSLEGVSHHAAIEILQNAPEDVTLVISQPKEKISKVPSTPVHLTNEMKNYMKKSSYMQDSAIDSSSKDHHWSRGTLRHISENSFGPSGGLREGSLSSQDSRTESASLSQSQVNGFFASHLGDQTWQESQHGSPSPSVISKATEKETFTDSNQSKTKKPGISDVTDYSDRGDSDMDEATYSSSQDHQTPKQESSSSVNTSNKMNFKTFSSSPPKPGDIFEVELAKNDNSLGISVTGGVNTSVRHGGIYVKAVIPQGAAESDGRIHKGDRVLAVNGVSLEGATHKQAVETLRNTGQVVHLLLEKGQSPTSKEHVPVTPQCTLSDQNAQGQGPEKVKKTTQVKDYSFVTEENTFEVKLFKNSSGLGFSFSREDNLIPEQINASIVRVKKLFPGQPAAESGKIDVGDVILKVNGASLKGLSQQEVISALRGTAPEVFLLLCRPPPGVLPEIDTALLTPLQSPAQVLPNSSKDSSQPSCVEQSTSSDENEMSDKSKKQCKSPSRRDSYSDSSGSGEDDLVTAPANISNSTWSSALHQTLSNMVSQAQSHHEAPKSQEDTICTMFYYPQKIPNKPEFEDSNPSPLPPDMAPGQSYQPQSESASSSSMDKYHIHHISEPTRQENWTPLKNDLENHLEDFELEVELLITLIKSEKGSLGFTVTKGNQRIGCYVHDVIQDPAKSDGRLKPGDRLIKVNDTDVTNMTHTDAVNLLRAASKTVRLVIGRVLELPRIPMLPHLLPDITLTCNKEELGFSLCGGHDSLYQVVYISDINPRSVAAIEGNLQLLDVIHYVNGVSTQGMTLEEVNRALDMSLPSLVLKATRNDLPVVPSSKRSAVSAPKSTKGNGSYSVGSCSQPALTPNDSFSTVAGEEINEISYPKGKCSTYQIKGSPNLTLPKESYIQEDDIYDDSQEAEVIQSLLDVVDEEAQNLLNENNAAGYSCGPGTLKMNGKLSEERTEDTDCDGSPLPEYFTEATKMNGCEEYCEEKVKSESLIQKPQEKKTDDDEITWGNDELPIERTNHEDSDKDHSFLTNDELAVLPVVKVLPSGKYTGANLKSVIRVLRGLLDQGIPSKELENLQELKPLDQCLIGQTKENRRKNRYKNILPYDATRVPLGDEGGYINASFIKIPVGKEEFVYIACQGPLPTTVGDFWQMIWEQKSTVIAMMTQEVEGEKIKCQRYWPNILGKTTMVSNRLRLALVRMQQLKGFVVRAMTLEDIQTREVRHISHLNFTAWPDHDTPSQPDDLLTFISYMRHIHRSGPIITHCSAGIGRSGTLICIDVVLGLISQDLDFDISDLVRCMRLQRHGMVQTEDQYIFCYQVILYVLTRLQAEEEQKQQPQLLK

Turning to “Ac-SLV-COOH (Ac-Ser-Leu-Val-OH) [acetylated tripeptide, the three C-terminal amino acids of Fas]”, the “inhibitory effect on the binding of FAP-1 to Fas, truncated C-terminal peptides” value in assay [1] (FIG. 3B, acetylated synthetic peptides) was “same level of inhibitory effect”. Further, the “binding activity of FAP-1 to Fas proteins extracted from Jurkat T-cells” value in assay [2] is given as “abolished in a dose-dependent manner”. Besides, the “induction of apoptosis in microinjected DLD-1 cells” value in assay [3] is listed as “dramatically induced apoptosis; also recorded: showed condensed chromatin”. With “Ac-SLY: acetylated synthetic tripeptide SLY used as a non-binding control (Ac-Ser-Leu-Tyr) [reference compound]”, the “binding activity of FAP-1 to Fas proteins extracted from Jurkat T-cells” value in assay [2] was “not”. Besides, the “induction of apoptosis in microinjected DLD-1 cells” value in assay [3] was “did not; also recorded: only one cell of the area appeared apoptotic”. For “DSENSNFRNEIQSLV (Ac-DSENSNFRNEIQSLV) [synthetic 15 amino acids of Fas, synthetic peptide of the C-terminal 15 amino acids of Fas]”, the “binding of in vitro-translated FAP-1 to GST-Fas” value in assay [1] is on record as “dramatically reduced”.

On to “human PAMP peptide: N-terminal 20 amino acids of proadrenomedullin, negative control (ARLDVASEFRKKWNKWALSR; ends and bridges not checked; UniProt P35318 22-41, looked up) [reference compound]”, for which, in assay [1], the “binding of in vitro-translated FAP-1 to GST-Fas” value is “had no effect”.
